ChEMBL document CHEMBL4616632, “Discovery of Cyclic Boronic Acid QPX7728, an Ultrabroad-Spectrum Inhibitor of Serine and Metallo-β-lactamases” (J Med Chem, 2020)

What was measured:
[1] = target: Beta-lactamase OXA-23 (Acinetobacter baumannii) (UniProt Q9L4P2); assay: Inhibition of Acinetobacter baumannii AB1054 OXA-23 assessed as minimum concentration of compound needed to reduce the MIC of meropenem to 8 ug/ml
[2] = target: Chymotrypsin (Homo sapiens, UniProt Q99895+P17538+P40313+Q6GPI1); assay: Inhibition of mammalian chymotrypsin (unknown origin) using Suc-AAPF-AMC as substrate preincubated for 10 mins followed by substrate addition measured after 30 mins; type: protein assay
[3] = Protein binding in rat plasma; type: ADME, cell-free; conditions: read-out: PPB (converted)
[4] = system: Enterobacteriaceae; assay: Inhibition of NDM/VIM in carbapenem-resistant Enterobacteriaceae assessed as potentiation of cefepime-induced antibacterial activity by measuring cefepime MIC50 at 8 ug/ml by broth microdilution method (Rvb > 32 ug/ml)
[5] = system: Enterobacteriaceae; assay: Inhibition of NDM/VIM in carbapenem-resistant Enterobacteriaceae assessed as potentiation of cefepime-induced antibacterial activity by measuring cefepime MIC90 at 8 ug/ml by broth microdilution method (Rvb > 32 ug/ml)
[6] = system: Klebsiella pneumoniae; assay: Potentiation of ceftolozane-induced antibacterial activity against carbapenem-resistant Klebsiella pneumoniae assessed as ceftolozane MIC50 at 8 ug/ml by broth microdilution method (Rvb > 32 ug/ml); type: functional
[7] = system: Pseudomonas aeruginosa; assay: Potentiation of ceftolozane-induced antibacterial activity against Pseudomonas aeruginosa assessed as ceftolozane MIC50 at 8 ug/ml by broth microdilution method (reference value: 0.5 ug/ml); type: functional
[8] = system: Klebsiella pneumoniae; assay: Potentiation of ceftolozane-induced antibacterial activity against carbapenem-resistant Klebsiella pneumoniae assessed as ceftolozane MIC90 at 8 ug/ml by broth microdilution method (Rvb > 32 ug/ml); type: functional
[9] = system: Enterobacteriaceae; assay: Inhibition of OXA-48 in carbapenem-resistant Enterobacteriaceae assessed as potentiation of ceftolozane-induced antibacterial activity by measuring ceftolozane MIC90 at 8 ug/ml by broth microdilution method (Rvb > 32 ug/ml)
[10] = system: Klebsiella pneumoniae; assay: Potentiation of meropenem-induced antibacterial activity against carbapenem-resistant Klebsiella pneumoniae assessed as meropenem MIC50 at 8 ug/ml by broth microdilution method (reference value: 32 ug/ml); type: functional
[11] = system: Enterobacteriaceae; assay: Inhibition of OXA-48 in carbapenem-resistant Enterobacteriaceae assessed as potentiation of meropenem-induced antibacterial activity by measuring meropenem MIC50 at 8 ug/ml by broth microdilution method (reference value: 32 ug/ml)
[12] = system: Enterobacterales; assay: Potentiation of meropenem-induced antibacterial activity against Enterobacterales assessed as meropenem MIC90 at 8 ug/ml by broth microdilution method (Rvb > 32 ug/ml); type: functional
[13] = system: Klebsiella pneumoniae; assay: Potentiation of meropenem-induced antibacterial activity against carbapenem-resistant Klebsiella pneumoniae assessed as meropenem MIC90 at 8 ug/ml by broth microdilution method (Rvb > 32 ug/ml); type: functional
[14] = system: Acinetobacter baumannii; assay: Potentiation of meropenem-induced antibacterial activity against carbapenem-resistant Acinetobacter baumannii assessed as meropenem MIC90 at 8 ug/ml by broth microdilution method (Rvb > 32 ug/ml); type: functional

Chain of Beta-lactamase OXA-23 (Acinetobacter baumannii) (Q9L4P2 whole entry): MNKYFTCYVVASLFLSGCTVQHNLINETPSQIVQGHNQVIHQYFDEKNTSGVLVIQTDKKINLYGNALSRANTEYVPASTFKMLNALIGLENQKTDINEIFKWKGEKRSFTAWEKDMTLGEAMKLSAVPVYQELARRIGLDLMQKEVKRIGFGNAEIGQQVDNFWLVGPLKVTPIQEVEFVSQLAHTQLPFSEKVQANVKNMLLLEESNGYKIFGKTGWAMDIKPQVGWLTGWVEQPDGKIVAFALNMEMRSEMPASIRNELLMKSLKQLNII

## O=C(O)c1c(F)ccc2c1OB(O)[C@@H]1C[C@H]21 [XERUBORBACTAM]
[1]
  MEC: 1.25 µg/mL
[2]
  IC50: > 1 mM
[3]
  fraction unbound: 0.15
[4]
  MIC50: < 0.06 µg/mL
[5]
  MIC90: 1 µg/mL
[6]
  MIC50: 0.125 µg/mL
[7]
  MIC50: 0.5 µg/mL
[8]
  MIC90: 0.5 µg/mL
[9]
  MIC90: 0.5 µg/mL
[10]
  MIC50: ≤ 0.06 µg/mL
[11]
  MIC50: < 0.06 µg/mL
[12]
  MIC90: 0.125 µg/mL
[13]
  MIC90: 0.125 µg/mL
[14]
  MIC90: 4 µg/mL
